Where two headings read alike, the source gives them in different places.
What was measured:
[1] = target: AktK (Homo sapiens, UniProt P31749); test: Luciferase-coupled chemiluminescence kinase assay (ATP consumption); format: biochemical; conditions: read-out: AKT-1 IC50
Method in brief: (§1)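 Activity is read as ATP depletion: luciferase-luciferin reagent added after a 3 h ambient-temperature kinase reaction, with total ATP use limited to 25-60%. Before ATP addition, 2.5-5 nM kinase and compound were preincubated 30 min in Tris pH 7.5/MgCl2/TX-100/DTT buffer; […].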

[2] = target: p70S6K (Homo sapiens, UniProt P23443); test: as above; format: biochemical
Method in brief: as §1

Sequence of AktK (P31749 whole entry): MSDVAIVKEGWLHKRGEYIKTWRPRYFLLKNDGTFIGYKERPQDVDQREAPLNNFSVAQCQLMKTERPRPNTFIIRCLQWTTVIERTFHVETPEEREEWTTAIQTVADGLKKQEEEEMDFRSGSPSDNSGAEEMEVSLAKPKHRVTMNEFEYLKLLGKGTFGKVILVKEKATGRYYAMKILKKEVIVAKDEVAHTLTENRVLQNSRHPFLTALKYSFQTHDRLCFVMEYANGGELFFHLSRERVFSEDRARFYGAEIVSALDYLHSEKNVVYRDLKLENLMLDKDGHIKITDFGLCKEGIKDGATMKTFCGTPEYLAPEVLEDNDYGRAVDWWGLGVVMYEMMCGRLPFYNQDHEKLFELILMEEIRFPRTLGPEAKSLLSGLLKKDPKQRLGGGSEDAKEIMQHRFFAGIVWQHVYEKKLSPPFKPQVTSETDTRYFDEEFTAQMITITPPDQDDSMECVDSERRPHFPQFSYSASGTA
Sequence of p70S6K (P23443 whole entry): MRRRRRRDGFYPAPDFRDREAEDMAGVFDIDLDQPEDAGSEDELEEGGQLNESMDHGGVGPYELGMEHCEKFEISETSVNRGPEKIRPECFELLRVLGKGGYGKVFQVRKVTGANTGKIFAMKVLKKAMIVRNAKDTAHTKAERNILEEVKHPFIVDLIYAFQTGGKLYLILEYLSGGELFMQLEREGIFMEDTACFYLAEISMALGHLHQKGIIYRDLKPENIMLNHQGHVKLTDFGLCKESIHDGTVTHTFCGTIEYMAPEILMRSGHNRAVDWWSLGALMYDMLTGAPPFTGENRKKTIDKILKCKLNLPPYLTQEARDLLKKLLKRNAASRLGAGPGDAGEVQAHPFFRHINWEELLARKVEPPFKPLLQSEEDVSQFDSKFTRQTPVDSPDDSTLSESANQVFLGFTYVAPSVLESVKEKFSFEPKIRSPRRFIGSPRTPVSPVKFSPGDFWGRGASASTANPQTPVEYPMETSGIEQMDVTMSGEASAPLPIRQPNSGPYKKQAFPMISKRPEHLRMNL

| Compound | IC50 [1] [nM] | IC50 [2] [nM] | IC50 ([1]; Table 1, class symbols per key) [nM] | IC50 ([2]; Table 1, class symbols per key) [nM] |
| --- | --- | --- | --- | --- |
| CCc1n[nH]c2ncnc(N3CCN(c4cccc(Cl)c4)C(C(=O)NCCN(C)C)C3)c12 (stereo not shown) [Entry 360, 1-(3-chlorophenyl)-N-[2-(dimethylamino)ethyl]-4-(3-ethyl-1H-pyrazolo[3,4-d]pyrimidin-4-yl)piperazine-2-carboxamide] | 1000 to 10000 | 1000 to 10000 |  |  |
| Cc1c(NCCN2CCCC2)cc(-c2nccs2)cc1N1CCN(c2ncnc3[nH]nc(Br)c23)CC1 [Entry 233, 3-[4-(3-bromo-1H-pyrazolo[3,4-d]pyrimidin-4-yl)piperazin-1-yl]-2-methyl-N-(2-pyrrolidin-1-ylethyl)-5-(1,3-thiazol-2-yl)aniline] |  |  | < 100 | < 100 |
| Brc1n[nH]c2ncnc(N3CCN(c4nccc(-c5ccco5)n4)CC3)c12 [Entry 143, 3-bromo-4-[4-(4-furan-2-ylpyrimidin-2-yl)piperazin-1-yl]-1H-pyrazolo[3,4-d]pyrimidine] |  |  | ≥ 10000 | 100 to 1000 |
| CCc1n[nH]c2ncnc(N3CCN(c4cccc(Cl)c4)CC3)c12 [Entry 333, 4-[4-(3-chlorophenyl)piperazin-1-yl]-3-ethyl-1H-pyrazolo[3,4-d]pyrimidine] | 1000 to 10000 | < 100 |  |  |
| Clc1cccc(N2CCN(c3ncnc4[nH]nc(Br)c34)CC2)c1 [Entry 134, 3-bromo-4-[4-(3-chlorophenyl)piperazin-1-yl]-1H-pyrazolo[3,4-d]pyrimidine] |  |  | ≥ 10000 | < 100 |
| Cc1ccc(Cl)cc1N1CCN(c2ncnc3[nH]nc(-c4cccc(OCc5ccccc5)c4)c23)CC1 [Entry 336, 4-[4-(5-chloro-2-methylphenyl)piperazin-1-yl]-3-{3-[(phenylmethyl)oxy]phenyl}-1H-pyrazolo[3,4-d]pyrimidine] | 1000 to 10000 | 1000 to 10000 |  |  |
| Cc1c(OCCCN2CCCC2)cc(Cl)cc1N1CCN(c2ncnc3[nH]nc(Br)c23)CC1 [Entry 84, 3-bromo-4-(4-{5-chloro-2-methyl-3-[(3-pyrrolidin-1-ylpropyl)oxy]phenyl}piperazin-1-yl)-1H-pyrazolo[3,4-d]pyrimidine] |  |  | < 100 | < 100 |
| Fc1ccc(N2CCN(c3ncnc4[nH]nc(Br)c34)CC2)cc1F [Entry 76, 3-bromo-4-[4-(3,4-difluorophenyl)piperazin-1-yl]-1H-pyrazolo[3,4-d]pyrimidine] |  |  | ≥ 10000 | 100 to 1000 |
| CCc1n[nH]c2ncnc(N3CCN(c4cc(F)cc(NCCN5CCCC5)c4C)CC3)c12 [Entry 78, 3-[4-(3-ethyl-1H-pyrazolo[3,4-d]pyrimidin-4-yl)piperazin-1-yl]-5-fluoro-2-methyl-N-(2-pyrrolidin-1-ylethyl)aniline] |  |  | 1000 to 10000 | < 100 |
| 3-bromo-4-(4-{4-methyl-3′-[(2-pyrrolidin-1-yl-ethyl)oxy]biphenyl-3-yl}piperazin-1-yl)-1H-pyrazolo[3,4-d]pyrimidine [Entry 290] | < 100 | < 100 |  |  |
| CCc1n[nH]c2ncnc(N3CCN(c4cc(OCC(C)C)cc(NCCN5CCCC5)c4C)CC3)c12 [Entry 172, 3-[4-(3-ethyl-1H-pyrazolo[3,4-d]pyrimidin-4-yl)piperazin-1-yl]-2-methyl-5-[(2-methyl-propyl)oxy]-N-(2-pyrrolidin-1-ylethyl)aniline] |  |  | < 100 | < 100 |
| Cc1ccccc1N1CCN(c2ncnc3[nH]cnc23)CC1 [Entry 315, 6-[4-(2-methylphenyl)piperazin-1-yl]-9H-purine] | ≥ 10000 | 100 to 1000 |  |  |
| Cc1c(NCCN2CCCC2)cc(OCC(F)(CF)CF)cc1N1CCN(c2ncnc3[nH]nc(/C=C/C(=O)O)c23)CC1 [Entry 291, (2E)-3-[4-(4-{5-{[2,3-difluoro-2-(fluoromethyl)pro-pyl]oxy}-2-methyl-3-[(2-pyrrolidin-1-ylethyl)a-mino]phenyl}piperazin-1-yl)-1H-pyrazolo[3,4-d]pyrimidin-3-yl]prop-2-enoic acid] | < 100 | < 100 |  |  |
| CCN1CCN(CCCOc2cc(Cl)cc(N3CCN(c4ncnc5[nH]nc(C(F)(F)F)c45)CC3)c2C)CC1 [Entry 71, 4-[4-(5-chloro-3-{[3-(4-ethylpiperazin-1-yl)propyl]oxy}-2-methylphenyl)piperazin-1-yl]-3-(trifluoromethyl)-1H-pyrazolo[3,4-d]pyrimidine] |  |  | 100 to 1000 | < 100 |
| CCc1n[nH]c2ncnc(N3CCN(c4cc(Cl)cc(CNCCN(C)C)c4OC)CC3)c12 [Entry 378, N′-{[5-chloro-3-[4-(3-ethyl-1H-pyrazolo[3,4-d]pyrimidin-4-yl)piperazin-1-yl]-2-(methyloxy)phe-nyl]methyl}-N,N-dimethylethane-1,2-diamine] | 1000 to 10000 | 100 to 1000 |  |  |
| Cc1c(OCCN2CCCC2)cc(Cl)cc1N1CCN(c2ncnc3[nH]nc(CC(C)C)c23)CC1 [Entry 163, 4-(4-{5-chloro-2-methyl-3-[(2-pyrrolidin-1-ylethyl)oxy]phenyl}piperazin-1-yl)-3-(2-methylpropyl)-1H-pyrazolo[3,4-d]pyrimidine] |  |  | 1000 to 10000 | < 100 |

| Compound | IC50 [1] [nM] | IC50 [2] [nM] | IC50 ([1]; Table 1, class symbols per key) [nM] | IC50 ([2]; Table 1, class symbols per key) [nM] |
| --- | --- | --- | --- | --- |
| CCc1n[nH]c2ncnc(N3CCN(c4ncnc5cc(OC)c(OC)cc45)CC3)c12 [Entry 169, 4-[4-(3-ethyl-1H-pyrazolo[3,4-d]pyrimidin-4-yl)piperazin-1-yl]-6,7-bis(methyloxy)quinazoline] |  |  | ≥ 10000 | 1000 to 10000 |
| CNC(=O)c1cc(NCCN2CCCC2)c(C)c(N2CCN(c3ncnc4[nH]nc(Br)c34)CC2)c1 [Entry 202, 3-[4-(3-bromo-1H-pyrazolo[3,4-d]pyrimidin-4-yl)piperazin-1-yl]-N,4-dimethyl-5-[(2-pyrrolidin-1-ylethyl)amino]benzamide] |  |  | 100 to 1000 | < 100 |
| 3-bromo-4-(4-{4-methyl-2′-[(2-pyrrolidin-1-ylethyl)oxy]biphenyl-3-yl}piperazin-1-yl)-1H-pyrazolo[3,4-d]pyrimidine [Entry 269] |  |  | < 100 | < 100 |
| Cc1ccc(-c2ccccc2OCCCN2CCOCC2)cc1N1CCN(c2ncnc3[nH]nc(Br)c23)CC1 [Entry 278, 3-bromo-4-(4-{4-methyl-2′-[(3-morpholin-4-ylpropyl)oxy]biphenyl-3-yl}piperazin-1-yl)-1H-pyrazolo[3,4-d]pyrimidine] |  |  | < 100 | < 100 |
| Cc1c(NCCN2CCCC2)cc(OCC(C)(C)F)cc1N1CCN(c2ncnc3[nH]nc(Br)c23)CC1 [Entry 216, 3-[4-(3-bromo-1H-pyrazolo[3,4-d]pyrimidin-4-yl)piperazin-1-yl]-5-[(2-fluoro-2-methylpro-pyl)oxy]-2-methyl-N-(2-pyrrolidin-1-ylethyl)aniline] |  |  | < 100 | < 100 |
| c1ccc(N2CCN(c3ncnc4[nH]cnc34)CC2)cc1 [Entry 293, 6-(4-phenylpiperazin-1-yl)-9H-purine] | ≥ 10000 | 1000 to 10000 |  |  |
| Cc1ccc(C(=O)O)cc1N1CCN(c2ncnc3[nH]nc(Br)c23)CC1 [Entry 180, 3-[4-(3-bromo-1H-pyrazolo[3,4-d]pyrimidin-4-yl)piperazin-1-yl]-4-methylbenzoic acid] |  |  | 100 to 1000 | < 100 |
| Clc1ccc(N2CCN(c3ncnc4[nH]nc(Br)c34)CC2)cc1 [Entry 154, 3-bromo-4-[4-(4-chlorophenyl)piperazin-1-yl]-1H-pyrazolo[3,4-d]pyrimidine] |  |  | ≥ 10000 | 100 to 1000 |
| CCc1n[nH]c2ncnc(N3CCN(c4cc(C(F)(F)F)ccn4)CC3)c12 [Entry 116, 3-ethyl-4-{4-[4-(trifluoromethyl)pyridin-2-yl]piperazin-1-yl}-1H-pyrazolo[3,4-d]pyrimidine] |  |  | ≥ 10000 | 100 to 1000 |
| CCCc1n[nH]c2ncnc(N3CCN(c4cc(Cl)ccc4C)CC3)c12 [Entry 330, 4-[4-(5-chloro-2-methylphenyl)piperazin-1-yl]-3-propyl-1H-pyrazolo[3,4-d]pyrimidine] | 1000 to 10000 | < 100 |  |  |
| CCCC(=O)c1cc(NCCN2CCCC2)c(C)c(N2CCN(c3ncnc4[nH]nc(Br)c34)CC2)c1 [Entry 248, 1-{3-[4-(3-bromo-1H-pyrazolo[3,4-d]pyrimidin-4-yl)piperazin-1-yl]-4-methyl-5-[(2-pyrrolidin-1-ylethyl)amino]phenyl}butan-1-one] |  |  | < 100 | < 100 |
| Cc1ccc(Cl)cc1N1CCN(c2ncnc3[nH]nc(/C=C4/C[C@H]5CNC[C@H]5C4)c23)CC1 [Entry 396, 4-[4-(5-chloro-2-methylphenyl)piperazin-1-yl]-3-[(E)-(3aR,6aS)-hexahydrocyclopenta[c]pyrrol-5(1H)-ylidenemethyl]-1H-pyrazolo[3,4-d]pyrimidine] | 1000 to 10000 | 1000 to 10000 |  |  |
| Cc1c(CCCN2CCOCC2)cc(Cl)cc1N1CCN(c2ncnc3[nH]nc(Br)c23)CC1 [Entry 18, 3-bromo-4-{4-[5-chloro-2-methyl-3-(3-morpholin-4-ylpropyl)phenyl]piperazin-1-yl}-1H-pyrazolo[3,4-d]pyrimidine] |  |  | 100 to 1000 | < 100 |
| Cc1c(NCCN2CCCC2)cc(C(=O)CCC(F)(F)F)cc1N1CCN(c2ncnc3[nH]nc(Br)c23)CC1 [Entry 274, 1-{3-[4-(3-bromo-1H-pyrazolo[3,4-d]pyrimidin-4-yl)piperazin-1-yl]-4-methyl-5-[(2-pyrrolidin-1-ylethyl)amino]phenyl}-4,4,4-trifluorobutan-1-one] |  |  | < 100 | < 100 |
| Fc1ccc(N2CCN(c3ncnc4[nH]nc(Br)c34)CC2)cc1Cl [Entry 93, 3-bromo-4-[4-(3-chloro-4-fluorophenyl)piperazin-1-yl]-1H-pyrazolo[3,4-d]pyrimidine] |  |  | 1000 to 10000 | < 100 |
| Brc1n[nH]c2ncnc(N3CCN(c4nccnc4OCCN4CCCCC4)CC3)c12 [Entry 167, 3-bromo-4-(4-{3-[(2-piperidin-1-ylethyl)oxy]pyrazin-2-yl}piperazin-1-yl)-1H-pyrazolo[3,4-d]pyrimidine] |  |  | 1000 to 10000 | 100 to 1000 |

Reference: patent publication US8076338B2, “Kinase modulators and methods of use” (Exelixis, Inc., priority 2004, dated 2011)
